Assay results from US20250115612A1, “CERTAIN 2,5-DIAZABICYCLO[4.2.0]OCTANES AND OCTAHYDROFURO[3,4-B]PYRAZINES AS GLP-1 RECEPTOR MODULATORS” (ASTRAZENECA AB, priority 2021, published 2025).

How the values were obtained:
GLP-1R = molecular target: T1, GLP-1R (Homo sapiens, UniProt P43220); experiment: EndoC cAMP accumulation assay (HTRF, EndoC-βH1 cells); format: cell-based; conditions: EndoC-βH1 human pancreatic β cell line
T1 construct: host or cells: EndoC-βH1
Method in brief: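 Thawed cryopreserved EndoC-βH1 cells, about 3000 per well, were stimulated for 30 min at room temperature. Buffer was HBSS with 25 mM HEPES pH 7.4, 0.1% BSA and 0.5 mM IBMX. cAMP was measured by competitive HTRF after 1 h lysis/detection (590/660 nm). Four-parameter fits gave % activation between basal and maximal GIP (82.5 nM) signal.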

human GLP-1R receptor = molecular target: T2, human GLP-1R receptor (Homo sapiens, UniProt P43220, L260F); experiment: CHOK1 GLP-1R cAMP assay (HTRF); format: cell-based; conditions: CHO-K1 cells stably expressing human GLP-1R
T2 construct: expressed in transfected cells; host or cells: CHO-K1 (ATCC CCL-61)
Method in brief: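 Cells were CHO-K1 stably expressing human GLP-1R (Leu260Phe variant), at 800 cells/well in HEPES pH 7.4/HBSS/0.1% BSA with IBMX, stimulated 20 min at rt. cAMP was measured by competitive HTRF and converted via a standard curve. EC50 came from a 4-parameter logistic fit, with % effect relative to a saturating GLP-1(7-36)NH2 concentration.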

[1] = molecular target: T3, human phosphodiesterase-3A (Homo sapiens, UniProt Q14432); experiment: PDE3 assay (formation of 5'AMP from cAMP, SPA); format: biochemical; conditions: human recombinant enzyme expressed in Sf9 cells
T3 construct: host or cells: Sf9 (Spodoptera frugiperda)
Protocol: Evaluation of the effects of compounds on the activity of the human phosphodiesterase-3A is quantified by measuring the formation of 5′AMP from cAMP using a human recombinant enzyme expressed in a clonal isolate of Spodoptera frugiperda cells (Sf9) cells.
The test compound, reference compound or water (control) are added to a buffer containing 40 mM tris(hydroxymethyl)aminomethane (Tris)/HCl (pH 7.4) and 8 mM MgCl2, 450 nMcAMP and 0.25 μCi [3H]cAMP.
Thereafter, the reaction is initiated by addition of the enzyme (about 1 U) and the mixture is incubated for 20 min at 22° C.
For basal control measurements, the enzyme is omitted from the reaction mixture.
Following incubation SPA beads are added. After 30 min at 22° C. under shaking, the amount of [^3H]5′AMP is quantified with a scintillation counter (Topcount, Packard).
The results are expressed as a percent inhibition of the control enzyme activity. The standard inhibitory reference compound is milrinone (CAS number 78415-72-2), which is tested in each experiment at several concentrations to obtain an inhibition curve from which its IC50 value is calculated.

T3 sequence (Q14432 whole entry): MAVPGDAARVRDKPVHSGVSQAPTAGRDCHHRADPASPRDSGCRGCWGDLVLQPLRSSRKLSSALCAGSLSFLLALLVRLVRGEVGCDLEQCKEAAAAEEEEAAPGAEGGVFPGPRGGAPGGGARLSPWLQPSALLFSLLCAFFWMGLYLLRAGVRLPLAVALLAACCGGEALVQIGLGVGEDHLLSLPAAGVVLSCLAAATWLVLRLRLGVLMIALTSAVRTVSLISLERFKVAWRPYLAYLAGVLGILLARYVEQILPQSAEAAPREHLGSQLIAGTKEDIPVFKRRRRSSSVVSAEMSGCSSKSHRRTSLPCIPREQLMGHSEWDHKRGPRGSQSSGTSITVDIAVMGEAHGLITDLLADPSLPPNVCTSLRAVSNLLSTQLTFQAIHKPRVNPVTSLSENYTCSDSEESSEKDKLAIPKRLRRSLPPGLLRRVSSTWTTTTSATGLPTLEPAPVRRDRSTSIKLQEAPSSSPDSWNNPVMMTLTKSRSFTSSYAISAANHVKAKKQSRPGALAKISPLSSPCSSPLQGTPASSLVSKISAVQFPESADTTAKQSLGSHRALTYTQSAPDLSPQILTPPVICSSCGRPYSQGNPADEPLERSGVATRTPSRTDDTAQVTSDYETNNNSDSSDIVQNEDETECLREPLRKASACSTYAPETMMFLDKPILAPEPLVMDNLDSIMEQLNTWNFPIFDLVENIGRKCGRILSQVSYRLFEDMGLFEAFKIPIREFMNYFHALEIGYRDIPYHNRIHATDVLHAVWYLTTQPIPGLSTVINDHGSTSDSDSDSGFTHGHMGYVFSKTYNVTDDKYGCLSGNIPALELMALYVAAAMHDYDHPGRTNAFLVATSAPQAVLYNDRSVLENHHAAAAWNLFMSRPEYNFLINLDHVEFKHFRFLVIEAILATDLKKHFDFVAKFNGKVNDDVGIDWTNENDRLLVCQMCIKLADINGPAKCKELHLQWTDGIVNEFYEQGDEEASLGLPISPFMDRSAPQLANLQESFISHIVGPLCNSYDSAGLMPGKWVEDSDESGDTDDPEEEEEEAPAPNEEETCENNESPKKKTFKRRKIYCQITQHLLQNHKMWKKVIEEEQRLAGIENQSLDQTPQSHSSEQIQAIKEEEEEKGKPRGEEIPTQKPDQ
T2 sequence (P43220 24-463 L260F): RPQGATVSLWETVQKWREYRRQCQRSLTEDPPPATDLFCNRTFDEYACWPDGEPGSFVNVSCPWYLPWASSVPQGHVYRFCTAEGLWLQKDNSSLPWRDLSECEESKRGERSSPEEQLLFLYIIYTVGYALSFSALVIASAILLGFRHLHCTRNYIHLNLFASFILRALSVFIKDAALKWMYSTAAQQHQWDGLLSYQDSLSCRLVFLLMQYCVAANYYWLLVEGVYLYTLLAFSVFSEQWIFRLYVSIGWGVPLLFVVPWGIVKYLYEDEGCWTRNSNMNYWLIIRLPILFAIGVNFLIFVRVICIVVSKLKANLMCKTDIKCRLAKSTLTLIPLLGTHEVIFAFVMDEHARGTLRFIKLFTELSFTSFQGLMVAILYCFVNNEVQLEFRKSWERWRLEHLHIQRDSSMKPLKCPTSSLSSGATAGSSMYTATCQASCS
T1 sequence (P43220 24-463): as the sequence (P43220 24-463 L260F) above, with F237L counted along it

- EC50 (GLP-1R): 4 nM
- EC50 (human GLP-1R receptor): 1.5 nM
- IC50 [1]: 22 µM
Compound: O=C(O)c1cc(F)c2nc(CN3CCN(c4cccc(OCc5ccc(Cl)cc5F)n4)[C@@H]4COC[C@@H]43)n(C[C@@H]3CCO3)c2c1 (single isomer, unassigned) [Example 19a, 2-(((4aR*,7aS*)-4-(6-((4-Chloro-2-fluorobenzyl)oxy)pyridin-2-yl)hexahydrofuro[3,4-b]pyrazin-1(2H)-yl)methyl)-4-fluoro-1-(((S)-oxetan-2-yl)methyl)-1H-benzo[d]imidazole-6-carboxylic acid]
